Where “and” joins values, the source holds several entries; their conditions need not be identical. Equal values may be shown once.
Columns and labels:
[1] = Glucagon blood concentration, nasal powder with calcium carbonate, two doses (Test Example 12); type: in vivo, healthy male adults (human)
Experimental: (§1) A nasally administrable composition in powdery form was prepared by formulating glucagon (from hog spleen) as a physiologically active peptide at the rate of 40 mg per composition (1,000 mg) with calcium carbonate as a carrier having a mean particle size ranging from 40 to 45 μm.
The resulting composition was nasally administered once at a dose of 0.4 glucagon unit/30 mg to two healthy male adults and 2 glucagon unit/30 mg to another two healthy male adults, and the blood (2.5 ml) was collected from each of the tested adults prior to administration and then at 5, 10, 15, 20, 30, 45, 60, 90, 120, 150 and 180 minutes after administration. The concentration of the glucagon in each of the collected blood samples was assayed with a standard RIA assay kit.

[2] = Glucagon blood concentration, nasal powder with hydroxyapatite (Test Example 8); type: in vivo, healthy male adults (human)
Experimental: A nasally administrable composition in powdery form was prepared by formulating glucagon (from hog spleen) as a physiologically active peptide at the rate of 40 mg per composition (1,000 mg) with hydroxyapatite as a carrier having a mean particle size ranging from 40 to 45 μm.
The resulting composition was nasally administered once at a dose of 1.2 glucagon unit/30 mg to three healthy male adults and the blood (2.5 ml) was collected from each of the tested adults prior to administration and then at 5, 10, 15, 20, 30, 45, 60, 90, 120, 150 and 180 minutes after administration. The concentration of the glucagon in each of the collected blood samples was assayed with a standard RIA assay kit.

[3] = Glucagon blood concentration, nasal powder with calcium carbonate (Test Example 9); type: in vivo, healthy male adults (human); conditions: for Concentration of glucagon in the blood: nasal 1.2 glucagon unit/30 mg, individual cases No. 21-24 in order
Experimental: as §1
[…] The concentration of the glucagon in each of the collected blood samples was assayed with a standard RIA assay kit.

[4] = Nasal absorption, clinical effect and irritation (general statement); type: in vivo; conditions: powder in specific carrier, nasal route

**Q.** Which results are given for glucagon?
**A.** Concentration of glucagon in the blood ([1]; 0 min (predose), nasal 0.4 glucagon unit/30 mg, individual cases No. 33-34 in order): 0.112 ng/mL and 0.06 ng/mL; Concentration of glucagon in the blood ([1]; 0 min (predose), nasal 2 glucagon unit/30 mg, individual cases No. 35-36 in order): 0.053 ng/mL and 0.097 ng/mL; absorption through nasal route ([1]; 0.4 and 2 glucagon unit): high extent of absorption; Concentration of glucagon in the blood ([1]; 5 min, nasal 0.4 glucagon unit/30 mg, individual cases No. 33-34 in order): 0.115 ng/mL and 0.065 ng/mL; Concentration of glucagon in the blood ([1]; 5 min, nasal 2 glucagon unit/30 mg, individual cases No. 35-36 in order): 0.076 ng/mL and 0.109 ng/mL; Concentration of glucagon in the blood ([1]; 10 min, nasal 0.4 glucagon unit/30 mg, individual cases No. 33-34 in order): 0.119 ng/mL and 0.077 ng/mL; Concentration of glucagon in the blood ([1]; 10 min, nasal 2 glucagon unit/30 mg, individual cases No. 35-36 in order): 0.116 ng/mL and 0.104 ng/mL; Concentration of glucagon in the blood ([1]; 15 min, nasal 0.4 glucagon unit/30 mg, individual cases No. 33-34 in order): 0.13 ng/mL and 0.072 ng/mL; Concentration of glucagon in the blood ([1]; 15 min, nasal 2 glucagon unit/30 mg, individual cases No. 35-36 in order): 0.085 ng/mL and 0.096 ng/mL; Concentration of glucagon in the blood ([1]; 20 min, nasal 0.4 glucagon unit/30 mg, individual cases No. 33-34 in order): 0.127 ng/mL and 0.079 ng/mL; Concentration of glucagon in the blood ([1]; 20 min, nasal 2 glucagon unit/30 mg, individual cases No. 35-36 in order): 0.102 ng/mL and 0.118 ng/mL; Concentration of glucagon in the blood ([1]; 30 min, nasal 0.4 glucagon unit/30 mg, individual cases No. 33-34 in order): 0.116 ng/mL and 0.086 ng/mL; Concentration of glucagon in the blood ([1]; 30 min, nasal 2 glucagon unit/30 mg, individual cases No. 35-36 in order): 0.056 ng/mL and 0.1 ng/mL; Concentration of glucagon in the blood ([1]; 45 min, nasal 0.4 glucagon unit/30 mg, individual cases No. 33-34 in order): 0.121 ng/mL and 0.075 ng/mL; Concentration of glucagon in the blood ([1]; 45 min, nasal 2 glucagon unit/30 mg, individual cases No. 35-36 in order): 0.094 ng/mL and 0.105 ng/mL; Concentration of glucagon in the blood ([1]; 60 min, nasal 0.4 glucagon unit/30 mg, individual cases No. 33-34 in order): 0.137 ng/mL and 0.061 ng/mL; Concentration of glucagon in the blood ([1]; 60 min, nasal 2 glucagon unit/30 mg, individual cases No. 35-36 in order): 0.079 ng/mL and 0.122 ng/mL; Concentration of glucagon in the blood ([1]; 90 min, nasal 0.4 glucagon unit/30 mg, individual cases No. 33-34 in order): 0.122 ng/mL and 0.066 ng/mL; Concentration of glucagon in the blood ([1]; 90 min, nasal 2 glucagon unit/30 mg, individual cases No. 35-36 in order): 0.06 ng/mL and 0.117 ng/mL; Concentration of glucagon in the blood ([1]; 120 min, nasal 0.4 glucagon unit/30 mg, individual cases No. 33-34 in order): 0.108 ng/mL and 0.057 ng/mL; Concentration of glucagon in the blood ([1]; 120 min, nasal 2 glucagon unit/30 mg, individual cases No. 35-36 in order): 0.069 ng/mL and 0.099 ng/mL; Concentration of glucagon in the blood ([1]; 150 min, nasal 0.4 glucagon unit/30 mg, individual cases No. 33-34 in order): 0.111 ng/mL and 0.076 ng/mL; Concentration of glucagon in the blood ([1]; 150 min, nasal 2 glucagon unit/30 mg, individual cases No. 35-36 in order): 0.069 ng/mL and 0.106 ng/mL; Concentration of glucagon in the blood ([1]; 180 min, nasal 0.4 glucagon unit/30 mg, individual cases No. 33-34 in order): 0.11 ng/mL and 0.074 ng/mL; Concentration of glucagon in the blood ([1]; 180 min, nasal 2 glucagon unit/30 mg, individual cases No. 35-36 in order): 0.06 ng/mL and 0.105 ng/mL; absorption through nasal route [2]: high extent of absorption; Concentration of glucagon in the blood ([2]; 0 min (predose), nasal 1.2 glucagon unit/30 mg, individual cases No. 17-20 in order): 0.051 ng/mL and 0.046 ng/mL and 0.036 ng/mL and 0.068 ng/mL; absorption through nasal route [3]: high extent of absorption; Concentration of glucagon in the blood ([3]; 0 min (predose)): 0.034 ng/mL and 0.056 ng/mL and 0.042 ng/mL and 0.048 ng/mL; Concentration of glucagon in the blood ([3]; 5 min): 0.073 ng/mL and 0.079 ng/mL and 0.08 ng/mL and 0.053 ng/mL; Concentration of glucagon in the blood ([3]; 10 min): 0.097 ng/mL and 0.091 ng/mL and 0.08 ng/mL and 0.044 ng/mL; Concentration of glucagon in the blood ([3]; 15 min): 0.086 ng/mL and 0.079 ng/mL and 0.083 ng/mL and 0.053 ng/mL; Concentration of glucagon in the blood ([3]; 20 min): 0.085 ng/mL and 0.089 ng/mL and 0.082 ng/mL and 0.05 ng/mL; Concentration of glucagon in the blood ([3]; 30 min): 0.071 ng/mL and 0.077 ng/mL and 0.09 ng/mL and 0.055 ng/mL; Concentration of glucagon in the blood ([3]; 45 min): 0.073 ng/mL and 0.089 ng/mL and 0.076 ng/mL and 0.049 ng/mL; Concentration of glucagon in the blood ([3]; 60 min): 0.064 ng/mL and 0.079 ng/mL and 0.077 ng/mL and 0.046 ng/mL; Concentration of glucagon in the blood ([3]; 90 min): 0.062 ng/mL and 0.078 ng/mL and 0.073 ng/mL and 0.047 ng/mL; Concentration of glucagon in the blood ([3]; 120 min): 0.056 ng/mL and 0.079 ng/mL and 0.088 ng/mL and 0.046 ng/mL; Concentration of glucagon in the blood ([3]; 150 min): 0.052 ng/mL and 0.067 ng/mL and 0.079 ng/mL and 0.054 ng/mL; Concentration of glucagon in the blood ([3]; 180 min): 0.051 ng/mL and 0.066 ng/mL and 0.062 ng/mL and 0.05 ng/mL; absorption into the body [4]: well absorbed into the body; clinical effects [4]: high clinical effects

— patent US5603943A, “Nasally administrable compositions” (Dott Research Laboratory, priority 1994, dated 1997)
